{"source": "paper PMC10940605", "about": "“Design, synthesis and in vitro anticancer activity of some new lomefloxacin derivatives” (Scientific Reports, 2024)", "key": {"[1]": {"tested_on": "60 human cancer cell lines", "test": "NCI-60 SRB screen, whole panel", "format": "cell-based", "settings": "Homo sapiens, 48 h; One Dose Mean Graph, Conc 1.00E-5 Molar; read-out: Mean Growth Percent"}, "UO-31": {"tested_on": "UO-31", "test": "NCI-60 SRB screen", "format": "cell-based", "settings": "Homo sapiens; UO-31, 10^–5 Molar; read-out: Percent growth inhibition", "experimental": "(§1) All newly synthesized compounds were selected and screened for anticancer activity against 60 human cancer cell lines representing 9 types of tumors including leukemia, melanoma, lung, colon, CNS, ovarian, renal, prostate, and breast cancers at the National Cancer Institute (NCI), Bethesda, USA. Screening was performed utilizing a single dose (10^−5 M concentration) and cells were incubated for 48 h. The end point was determined using sulforhodamine B (SRB) dye.\n(§2) In this study, all the 16 newly synthesized compounds were submitted to the National Cancer Institute (USA) for anticancer evaluation and were selected and evaluated using 60 different human tumor cell lines representing lung, colon, CNS, ovarian, renal, prostate, breast cancers as well as leukemia and melanoma. A single dose (10^–5 Molar) was used for the initial screening for evaluation of anticancer activity. The 60 human cancer cell lines were provided by the national cancer institute biomedical research campus in Frederick, Maryland.\n(§3) 60 different human cancer cell lines were utilized to screen the newly synthesized compounds for anticancer activity according to the previously reported standard procedure[24]–[26] as follows: • 96 well microtiter plates were used to inoculate the cells at […] ranging from 4000–5000 cells/well depending on the replication time of individual cell lines. Roswell Park Memorial Institute culture medium (RPMI 1640 medium) containing 2 mM L-glutamine and fetal bovine serum was used to grow the cells at 37 °C, 5% CO2, 95% air and 100% relative humidity for 24 h. • Fixation of cells in two plates of each cell line in situ was done using trichloroacetic acid (TCA). This represented the measurement of cell population at the time of drug addition (Tz). • Dimethyl sulfoxide (DMSO) was used to dissolve the synthesized compounds at 400-fold the desired final maximum concentration and frozen prior to use. This frozen concentrate was melted and diluted to twice the final concentration with complete medium containing 50 µg/mL gentamycin at time of drug addition. • The final compound concentration was obtained by adding 100 µL of the synthesized compounds to the appropriate microtiter wells already containing 100 µL followed by incubation of the plates at 37 °C, 5% CO2, 95% air and 100% relative humidity for 48 h. • Fixation of the cells was achieved by gentle addition of 50 µL of cold 50% (w/v) TCA followed by incubation for 60 min at 4 °C. The supernatant was then discarded and the plates are washed 5 times with tap water and air dried. • Sulphorhodamine B (SRB) solution (100 µL) at 0.4% (w/v) in 1% acetic acid was added to each plate followed by incubation for 10 min at room temperature. The unbound dye was then removed by washing five times with 1% acetic acid and plates were air dried. • Dissolution of the bound stain was done using […] trizma base and the absorbance was read at […] wavelength using an automated plate reader. • The percentage growth inhibition was calculated as follows: Ti-Tz/C-Tz×100forconcentrationswhichTi≥Tz Ti-Tz/Tz×100forconcentrationswhichTi<Tz • Time zero (Tz) • Control growth (C) • Test growth in the presence of drug (Ti)"}, "NCI-H322M": {"tested_on": "NCI-H322M", "test": "NCI-60 SRB screen", "format": "cell-based", "settings": "Homo sapiens, 10^–5 Molar, read-out: Percent growth inhibition", "experimental": "as §1, §2, §3"}, "MDA-MB-468": {"tested_on": "MDA-MB-468", "test": "NCI-60 SRB screen", "format": "cell-based", "settings": "Homo sapiens; MDA-MB-468, 10^–5 Molar; read-out: Percent growth inhibition", "experimental": "as §1, §2, §3"}, "MDA-MB-435": {"tested_on": "MDA-MB-435", "test": "NCI-60 SRB screen", "format": "cell-based", "settings": "Homo sapiens; MDA-MB-435, 10^–5 Molar; read-out: Percent growth inhibition", "experimental": "as §1, §2, §3"}, "NCI-H23": {"tested_on": "NCI-H23", "test": "NCI-60 SRB screen", "format": "cell-based", "settings": "Homo sapiens; NCI-H23, 10^–5 Molar; read-out: Percent growth inhibition", "experimental": "as §1, §2, §3"}, "PC-3": {"tested_on": "PC-3", "test": "NCI-60 SRB screen", "format": "cell-based", "settings": "Homo sapiens; PC-3, 10^–5 Molar; read-out: Percent growth inhibition", "experimental": "as §1, §2, §3"}, "SF-539": {"tested_on": "SF-539", "test": "NCI-60 SRB screen", "format": "cell-based", "settings": "Homo sapiens; SF-539, 10^–5 Molar; read-out: Percent growth inhibition", "experimental": "as §1, §2, §3"}, "SF-295": {"tested_on": "SF-295", "test": "NCI-60 SRB screen", "format": "cell-based", "settings": "Homo sapiens; SF-295, 10^–5 Molar; read-out: Percent growth inhibition", "experimental": "as §1, §2, §3"}, "UACC-62": {"tested_on": "UACC-62", "test": "NCI-60 SRB screen", "format": "cell-based", "settings": "Homo sapiens; UACC-62, 10^–5 Molar; read-out: Percent growth inhibition", "experimental": "as §1, §2, §3"}, "MCF7": {"tested_on": "MCF7", "test": "NCI-60 SRB screen", "format": "cell-based", "settings": "Homo sapiens; MCF7, 10^–5 Molar; read-out: Percent growth inhibition", "experimental": "as §1, §2, §3"}, "OVCAR-4": {"tested_on": "OVCAR-4", "test": "NCI-60 SRB screen", "format": "cell-based", "settings": "Homo sapiens; OVCAR-4, 10^–5 Molar; read-out: Percent growth inhibition", "experimental": "as §1, §2, §3"}, "SK-MEL-28": {"tested_on": "SK-MEL-28", "test": "NCI-60 SRB screen", "format": "cell-based", "settings": "Homo sapiens; SK-MEL-28, 10^–5 Molar; read-out: Percent growth inhibition", "experimental": "as §1, §2, §3"}, "M14": {"tested_on": "M14", "test": "NCI-60 SRB screen", "format": "cell-based", "settings": "Homo sapiens; M14, 10^–5 Molar; read-out: Percent growth inhibition", "experimental": "as §1, §2, §3"}, "MALME-3M": {"tested_on": "MALME-3M", "test": "NCI-60 SRB screen", "format": "cell-based", "settings": "Homo sapiens, 10^–5 Molar, read-out: Percent growth inhibition", "experimental": "as §1, §2, §3"}, "LOX IMVI": {"tested_on": "LOX IMVI", "test": "NCI-60 SRB screen", "format": "cell-based", "settings": "Homo sapiens, 10^–5 Molar, read-out: Percent growth inhibition", "experimental": "as §1, §2, §3"}, "NCI-H522": {"tested_on": "NCI-H522", "test": "NCI-60 SRB screen", "format": "cell-based", "settings": "Homo sapiens; NCI-H522, 10^–5 Molar; read-out: Percent growth inhibition", "experimental": "as §1, §2, §3"}, "CAKI-1": {"tested_on": "CAKI-1", "test": "NCI-60 SRB screen", "format": "cell-based", "settings": "Homo sapiens; CAKI-1, 10^–5 Molar; read-out: Percent growth inhibition", "experimental": "as §1, §2, §3"}, "OVCAR-5": {"tested_on": "OVCAR-5", "test": "NCI-60 SRB screen", "format": "cell-based", "settings": "Homo sapiens; OVCAR-5, 10^–5 Molar; read-out: Percent growth inhibition", "experimental": "as §1, §2, §3"}, "OVCAR-8": {"tested_on": "OVCAR-8", "test": "NCI-60 SRB screen", "format": "cell-based", "settings": "Homo sapiens; OVCAR-8, 10^–5 Molar; read-out: Percent growth inhibition", "experimental": "as §1, §2, §3"}, "HS 578T": {"tested_on": "HS 578T", "test": "NCI-60 SRB screen", "format": "cell-based", "settings": "Homo sapiens, 10^–5 Molar, read-out: Percent growth inhibition", "experimental": "as §1, §2, §3"}, "MDA-MB-231/ATCC": {"tested_on": "MDA-MB-231/ATCC", "test": "NCI-60 SRB screen", "format": "cell-based", "settings": "Homo sapiens, 10^–5 Molar, read-out: Percent growth inhibition", "experimental": "as §1, §2, §3"}, "BT-549": {"tested_on": "BT-549", "test": "NCI-60 SRB screen", "format": "cell-based", "settings": "Homo sapiens; BT-549, 10^–5 Molar; read-out: Percent growth inhibition", "experimental": "as §1, §2, §3"}, "SF-268": {"tested_on": "SF-268", "test": "NCI-60 SRB screen", "format": "cell-based", "settings": "Homo sapiens; SF-268, 10^–5 Molar; read-out: Percent growth inhibition", "experimental": "as §1, §2, §3"}, "U251": {"tested_on": "U251", "test": "NCI-60 SRB screen", "format": "cell-based", "settings": "Homo sapiens, U-251; U251, 10^–5 Molar; read-out: Percent growth inhibition", "experimental": "as §1, §2, §3"}, "ACHN": {"tested_on": "ACHN", "test": "NCI-60 SRB screen", "format": "cell-based", "settings": "Homo sapiens, 10^–5 Molar, read-out: Percent growth inhibition", "experimental": "as §1, §2, §3"}, "K-562": {"tested_on": "K-562", "test": "NCI-60 SRB screen", "format": "cell-based", "settings": "Homo sapiens, K562; K-562, 10^–5 Molar; read-out: Percent growth inhibition", "experimental": "as §1, §2, §3"}, "786-0": {"tested_on": "786-0", "test": "NCI-60 SRB screen", "format": "cell-based", "settings": "Homo sapiens; 786-0, 10^–5 Molar; read-out: Percent growth inhibition", "experimental": "as §1, §2, §3"}, "A498": {"tested_on": "A498", "test": "NCI-60 SRB screen", "format": "cell-based", "settings": "Homo sapiens; A498, 10^–5 Molar; read-out: Percent growth inhibition", "experimental": "as §1, §2, §3"}, "SNB-75": {"tested_on": "SNB-75", "test": "NCI-60 SRB screen", "format": "cell-based", "settings": "Homo sapiens; SNB-75, 10^–5 Molar; read-out: Percent growth inhibition", "experimental": "as §1, §2, §3"}}}
{"compound": "CCn1cc(C(=O)O)c(=O)c2cc(F)c(N3CCN(CC(=O)Nc4ccc(OC)cc4)C(C)C3)c(F)c21", "note": "(stereo not shown) [Compound 5c, 1-Ethyl-6,8-difluoro-7-(4-(2-((4-methoxyphenyl)amino)-2-oxoethyl)-3-methylpiperazin-1-yl)-4-oxo-1,4-dihydroquinoline-3-carboxylic acid]", "values": [{"measurement": "activity at 10 µM", "setting": "[1]", "value": 98.8, "unit": "%"}, {"measurement": "inhibition at 10 µM", "setting": "UO-31", "value": 19.1, "unit": "%"}, {"measurement": "inhibition at 10 µM", "setting": "NCI-H322M", "value": 5.28, "unit": "%"}, {"measurement": "inhibition at 10 µM", "setting": "MDA-MB-468", "value": 3.75, "unit": "%"}, {"measurement": "inhibition at 10 µM", "setting": "MDA-MB-435", "value": 6.19, "unit": "%"}, {"measurement": "inhibition at 10 µM", "setting": "NCI-H23", "value": 0.84, "unit": "%"}, {"measurement": "inhibition at 10 µM", "setting": "PC-3", "value": 4.07, "unit": "%"}, {"measurement": "inhibition at 10 µM", "setting": "SF-539", "value": 3.21, "unit": "%"}, {"measurement": "inhibition at 10 µM", "setting": "SF-295", "value": 2, "unit": "%"}, {"measurement": "inhibition at 10 µM", "setting": "UACC-62", "value": 12.6, "unit": "%"}, {"measurement": "inhibition at 10 µM", "setting": "MCF7", "value": 1.91, "unit": "%"}, {"measurement": "inhibition at 10 µM", "setting": "OVCAR-4", "value": 8.21, "unit": "%"}, {"measurement": "inhibition at 10 µM", "setting": "SK-MEL-28", "value": 5.79, "unit": "%"}, {"measurement": "inhibition at 10 µM", "setting": "M14", "value": 2.85, "unit": "%"}, {"measurement": "inhibition at 10 µM", "setting": "MALME-3M", "value": 3.82, "unit": "%"}, {"measurement": "inhibition at 10 µM", "setting": "LOX IMVI", "value": 14, "unit": "%"}, {"measurement": "inhibition at 10 µM", "setting": "NCI-H522", "value": 6.89, "unit": "%"}, {"measurement": "inhibition at 10 µM", "setting": "CAKI-1", "value": 11.4, "unit": "%"}, {"measurement": "inhibition at 10 µM", "setting": "OVCAR-5", "value": 0.25, "unit": "%"}, {"measurement": "inhibition at 10 µM", "setting": "OVCAR-8", "value": 3.62, "unit": "%"}, {"measurement": "inhibition at 10 µM", "setting": "HS 578T", "value": 8.53, "unit": "%"}, {"measurement": "inhibition at 10 µM", "setting": "MDA-MB-231/ATCC", "value": 13.7, "unit": "%"}, {"measurement": "inhibition at 10 µM", "setting": "BT-549", "value": 3.31, "unit": "%"}, {"measurement": "inhibition at 10 µM", "setting": "SF-268", "value": 8.23, "unit": "%"}, {"measurement": "inhibition at 10 µM", "setting": "U251", "value": 0.32, "unit": "%"}, {"measurement": "inhibition at 10 µM", "setting": "ACHN", "value": 0.45, "unit": "%"}, {"measurement": "inhibition at 10 µM", "setting": "K-562", "value": 5.75, "unit": "%"}, {"measurement": "inhibition at 10 µM", "setting": "786-0", "value": 4.78, "unit": "%"}, {"measurement": "inhibition at 10 µM", "setting": "A498", "value": 24.1, "unit": "%"}, {"measurement": "inhibition at 10 µM", "setting": "SNB-75", "value": 12.8, "unit": "%"}, {"measurement": "melting point", "value": "196 to 198", "unit": "°C"}]}
